Reference: patent US10457639B2, “Fluorescent regulators of RASSF1A expression and human cancer cell proliferation” (GEORGETOWN UNIVERSITY, priority 2008, dated 2019)

System: wild-type Balb/c mice
Test: Acute oral toxicity up-and-down procedure
Type: in vivo
Experimental: Animals. Balb/c mice and athymic Balb/c nude mice were purchased from the National Cancer Institute (NCI). Animals were housed 4-6 per cage with microisolater tops and provided food (Furina mice chow) and water ad libitum. The light cycle was regulated automatically (12 hours light/dark cycle) and temperature was maintained at 23±1° C. All animals were allowed to acclimate to this environment for one week prior to experimental manipulations. The Georgetown University Animal Care and Use Committee approved all animal studies in accordance with the guidelines adopted by the National Institute of Health.
This provided an ample therapeutic index of >55 at a starting efficacy dose of 10 mg/kg. Athymic Balb/c nude mice with human prostate tumor xenografts were dosed via intraperitoneal injection with 10 mg/kg of compound 6a once a day every other day for 25 days. Control mice were dosed with vehicle alone. Compound 6a reduced tumor volume by roughly 40% compared to control over 25 days (FIG. 8).

`COc1ccc2c(c1)[nH]c1c(C)c(OS(=O)(=O)c3cccc4c(N(C)C)cccc34)ccc12` [Compound 6a, 7-Methoxy-1-methyl-9H-carbazol-2-yl 5-(dimethylamino)naphthalene-1-sulfonate] was tested, and the therapeutic index (550 mg/kg without toxicity versus starting efficacy dose of 10 mg/kg) was > 55 and the acute oral toxicity (wild-type Balb/c mice dosed up to 550 mg/kg, oral) was “no toxicity was observed”.
